Data reported in patent US20160090383A1, “ANTIBACTERIAL PHTHALIDE DERIVATIVES” (priority 2013, published 2016).
≈ marks a conversion by molar mass, not a printed value.

What was measured:
Test in all cases: Bacterial growth minimal inhibitory concentration (microdilution, CLSI M7-A7)
Format in all cases: cell-based
[1] = tested on: Streptococcus pneumonia ATTC49619; conditions: Streptococcus pneumoniae, ATTC49619; quinolone-sensitive strain; cation-adjusted Mueller-Hinton Broth; read-out: MIC for S. pneumonia ATTC49619
Protocol: (§1) Minimal Inhibitory Concentrations (MICs; […]) were determined in cation-adjusted Mueller-Hinton Broth by a microdilution method following the description given in “Methods for Dilution Antimicrobial Susceptibility Tests for Bacteria that Grow Aerobically”, Approved standard, 7th ed., Clinical and Laboratory Standards Institute (CLSI) Document M7-A7, Wayne, Pa., USA, 2006.

[2] = tested on: Staphylococcus aureus A798; conditions: Staphylococcus aureus, A798; multiply-resistant strain (quinolone-resistant and methicillin-resistant); cation-adjusted Mueller-Hinton Broth; read-out: MIC for S. aureus A798
Protocol: as §1

[3] = tested on: Enterococcus faecium A949; conditions: Enterococcus faecium, A949; multiply-resistant strain (quinolone-resistant and vancomycin-resistant); cation-adjusted Mueller-Hinton Broth; read-out: MIC for E. faecium A949
Protocol: as §1

[4] = tested on: Moraxella catarrhalis A894; conditions: Moraxella catarrhalis, A894; quinolone-sensitive strain; cation-adjusted Mueller-Hinton Broth
Protocol: as §1

[5] = tested on: Staphylococcus aureus ATCC29213; conditions: Staphylococcus aureus, ATCC29213; methicillin-sensitive and quinolone-sensitive strain; cation-adjusted Mueller-Hinton Broth; read-out: MIC for S. aureus ATCC29213
Protocol: as §1

| Compound | MIC [1] [µg/mL] | MIC [2] [µg/mL] | MIC [3] [µg/mL] | MIC [4] [µg/mL] | MIC [5] [µg/mL] |
| --- | --- | --- | --- | --- | --- |
| O=C(CC1OC(=O)c2cc(-c3ccccc3)ccc21)NCCn1c(=O)ccc2ccc(F)cc21 (racemic) [Example 4, rac-N-[2-(7-Fluoro-2-oxo-2H-quinolin-1-yl)-ethyl]-2-(3-oxo-5-phenyl-1,3-dihydro-isobenzofuran-1-yl)-acetamide] | 1 (≈ 2.19 µM) | 0.5 (≈ 1.1 µM) | 0.5 (≈ 1.1 µM) | 8 (≈ 17.5 µM) | 0.125 (≈ 0.274 µM) |
| O=C(CC1OC(=O)c2cc(-c3cccc(F)c3)ccc21)NCCn1c(=O)ccc2ccc(F)cc21 (racemic) [Example 5, rac-N-[2-(7-Fluoro-2-oxo-2H-quinolin-1-yl)-ethyl]-2-[5-(3-fluoro-phenyl)-3-oxo-1,3-dihydro-isobenzofuran-1-yl]-acetamide] | 0.5 (≈ 1.05 µM) | 0.25 (≈ 0.527 µM) | 0.25 (≈ 0.527 µM) | 1 (≈ 2.11 µM) | 0.063 (≈ 0.133 µM) |
| O=C(CC1OC(=O)c2cc(-c3cccc(F)c3F)ccc21)NCCn1c(=O)ccc2ccc(F)cc21 (racemic) [Example 8, rac-2-[5-(2,3-Difluoro-phenyl)-3-oxo-1,3-dihydro-isobenzofuran-1-yl]-N-[2-(7-fluoro-2-oxo-2H-quinolin-1-yl)-ethyl]-acetamide] | 0.5 (≈ 1.02 µM) | 0.25 (≈ 0.508 µM) | 0.25 (≈ 0.508 µM) | 0.5 (≈ 1.02 µM) | 0.031 (≈ 0.063 µM) |
| O=C(CC1OC(=O)c2cc(-c3cc(F)ccc3F)ccc21)NCCn1c(=O)ccc2ccc(F)cc21 (racemic) [Example 9, rac-2-[5-(2,5-Difluoro-phenyl)-3-oxo-1,3-dihydro-isobenzofuran-1-yl]-N-[2-(7-fluoro-2-oxo-2H-quinolin-1-yl)-ethyl]-acetamide] | 0.25 (≈ 0.508 µM) | 0.125 (≈ 0.254 µM) | 0.25 (≈ 0.508 µM) | 0.125 (≈ 0.254 µM) | 0.031 (≈ 0.063 µM) |
| O=C1OC(C(=O)NCCCn2c(=O)ccc3ccc(F)cc32)c2ccc(-c3ccccc3)cc21 (racemic) [Example 13, rac-3-Oxo-5-phenyl-1,3-dihydro-isobenzofuran-1-carboxylic acid [3-(7-fluoro-2-oxo-2H-quinolin-1-yl)-propyl]-amide] | 1 (≈ 2.19 µM) | 0.125 (≈ 0.274 µM) | 0.5 (≈ 1.1 µM) | > 8 | 0.063 (≈ 0.138 µM) |
| O=C1OC(CCNCCn2c(=O)ccc3ccc(F)cc32)c2ccc(-c3ccc(F)cc3F)cc21 (racemic) [Example 15, rac-1-(2-{2-[5-(2,4-Difluoro-phenyl)-3-oxo-1,3-dihydro-isobenzofuran-1-yl]-ethylamino}-ethyl)-7-fluoro-1H-quinolin-2-one] | 0.5 (≈ 1.04 µM) | 1 (≈ 2.09 µM) | 0.5 (≈ 1.04 µM) | 4 (≈ 8.36 µM) | 0.25 (≈ 0.522 µM) |
| O=C(Cn1c(=O)ccc2ccc(F)cc21)NCCC1OC(=O)c2cc(-c3ccccc3)ccc21 (racemic) [Example 18, rac-2-(7-Fluoro-2-oxo-2H-quinolin-1-yl)-N-[2-(3-oxo-5-phenyl-1,3-dihydro-isobenzofuran-1-yl)-ethyl]-acetamide] | 4 (≈ 8.76 µM) | 2 (≈ 4.38 µM) | 0.5 (≈ 1.1 µM) | > 8 | 0.25 (≈ 0.548 µM) |
| O=C(Cn1c(=O)ccc2ccc(F)cc21)NCCC1OC(=O)c2cc(-c3cc(F)ccc3F)ccc21 (racemic) [Example 19, rac-N-{2-[5-(2,5-Difluoro-phenyl)-3-oxo-1,3-dihydro-isobenzofuran-1-yl]-ethyl}-2-(7-fluoro-2-oxo-2H-quinolin-1-yl)-acetamide] | 0.5 (≈ 1.02 µM) | 0.125 (≈ 0.254 µM) | 0.25 (≈ 0.508 µM) | 0.25 (≈ 0.508 µM) | 0.063 (≈ 0.128 µM) |
| O=C1OC(C(=O)NCCCn2c(=O)ccc3ccc(F)cc32)c2ccc(C3=CCCCC3)cc21 (racemic) [Example 21, rac-5-Cyclohex-1-enyl-3-oxo-1,3-dihydro-isobenzofuran-1-carboxylic acid [3-(7-fluoro-2-oxo-2H-quinolin-1-yl)-propyl]-amide] | 4 (≈ 8.69 µM) | 0.125 (≈ 0.271 µM) | 4 (≈ 8.69 µM) | 2 (≈ 4.34 µM) | 0.125 (≈ 0.271 µM) |
| O=C(Cn1c(=O)ccc2ccc(F)cc21)NCCC1OC(=O)c2cc(C3=CCCCC3)ccc21 (racemic) [Example 22, rac-N-[2-(5-Cyclohex-1-enyl-3-oxo-1,3-dihydro-isobenzofuran-1-yl)-ethyl]-2-(7-fluoro-2-oxo-2H-quinolin-1-yl)-acetamide] | 1 (≈ 2.17 µM) | 0.125 (≈ 0.271 µM) | 0.5 (≈ 1.09 µM) | 1 (≈ 2.17 µM) | 0.031 (≈ 0.0673 µM) |
| CC(C)=Cc1ccc2c(c1)C(=O)OC2CCNC(=O)Cn1c(=O)ccc2ccc(F)cc21 (racemic) [Example 25, rac-2-(7-Fluoro-2-oxo-2H-quinolin-1-yl)-N-{2-[5-(2-methyl-propenyl)-3-oxo-1,3-dihydro-isobenzofuran-1-yl]-ethyl}-acetamide] | 1 (≈ 2.3 µM) | 0.25 (≈ 0.575 µM) | 0.5 (≈ 1.15 µM) | 4 (≈ 9.21 µM) | 0.063 (≈ 0.145 µM) |

More lines, now with the values ahead:

| MIC [1] [µg/mL] | MIC [2] [µg/mL] | MIC [3] [µg/mL] | MIC [4] [µg/mL] | MIC [5] [µg/mL] | Compound |
| --- | --- | --- | --- | --- | --- |
| 0.5 (≈ 1.1 µM) | 0.125 (≈ 0.274 µM) | 0.25 (≈ 0.548 µM) | 0.5 (≈ 1.1 µM) | 0.031 (≈ 0.0679 µM) | COc1ccc2ncc(=O)n(CCNCCC3OC(=O)c4cc(-c5ccccc5)ccc43)c2n1 (racemic) [Example 2, rac-6-Methoxy-4-{2-[2-(3-oxo-5-phenyl-1,3-dihydro-isobenzofuran-1-yl)-ethylamino]-ethyl}-4H-pyrido[2,3-b]pyrazin-3-one] |
| 0.125 (≈ 0.282 µM) | 0.125 (≈ 0.282 µM) | 0.25 (≈ 0.565 µM) | 1 (≈ 2.26 µM) | 0.031 (≈ 0.0701 µM) | O=C1OC(CCNCCn2c(=O)ccc3ccc(F)cc32)c2ccc(-c3ccccc3)cc21 (racemic) [Example 3, rac-7-Fluoro-1-{2-[2-(3-oxo-5-phenyl-1,3-dihydro-isobenzofuran-1-yl)-ethylamino]-ethyl}-1H-quinolin-2-one] |
| 0.5 (≈ 1.05 µM) | 0.25 (≈ 0.527 µM) | 0.25 (≈ 0.527 µM) | 2 (≈ 4.22 µM) | 0.063 (≈ 0.133 µM) | O=C(CC1OC(=O)c2cc(-c3ccccc3F)ccc21)NCCn1c(=O)ccc2ccc(F)cc21 (racemic) [Example 6, rac-N-[2-(7-Fluoro-2-oxo-2H-quinolin-1-yl)-ethyl]-2-[5-(2-fluoro-phenyl)-3-oxo-1,3-dihydro-isobenzofuran-1-yl]acetamide] |
| 4 (≈ 8.12 µM) | > 8 | 2 (≈ 4.06 µM) | > 8 | 0.5 (≈ 1.02 µM) | O=C(CC1OC(=O)c2cc(-c3ccc(F)c(F)c3)ccc21)NCCn1c(=O)ccc2ccc(F)cc21 (racemic) [Example 10, rac-2-[5-(3,4-Difluoro-phenyl)-3-oxo-1,3-dihydro-isobenzofuran-1-yl]-N-[2-(7-fluoro-2-oxo-2H-quinolin-1-yl)-ethyl]-acetamide] |
| 0.25 (≈ 0.508 µM) | 0.25 (≈ 0.508 µM) | 0.25 (≈ 0.508 µM) | 0.125 (≈ 0.254 µM) | 0.031 (≈ 0.063 µM) | O=C(CC1OC(=O)c2cc(-c3cc(F)cc(F)c3)ccc21)NCCn1c(=O)ccc2ccc(F)cc21 (racemic) [Example 11, rac-2-[5-(3,5-Difluoro-phenyl)-3-oxo-1,3-dihydro-isobenzofuran-1-yl]-N-[2-(7-fluoro-2-oxo-2H-quinolin-1-yl)-ethyl]-acetamide] |
| 2 (≈ 4.48 µM) | 0.25 (≈ 0.56 µM) | 0.25 (≈ 0.56 µM) | 1 (≈ 2.24 µM) | 0.031 (≈ 0.0694 µM) | O=C(CC1OC(=O)c2cc(C3=CCCC3)ccc21)NCCn1c(=O)ccc2ccc(F)cc21 (racemic) [Example 12, rac-2-(5-Cyclopent-1-enyl-3-oxo-1,3-dihydro-isobenzofuran-1-yl)-N-[2-(7-fluoro-2-oxo-2H-quinolin-1-yl)-ethyl]-acetamide] |
| 0.5 (≈ 1.09 µM) | 0.063 (≈ 0.137 µM) | 0.25 (≈ 0.543 µM) | 0.5 (≈ 1.09 µM) | ≤ 0.016 | O=C(CC1OC(=O)c2cc(C3=CCCCC3)ccc21)NCCn1c(=O)ccc2ccc(F)cc21 (racemic) [Example 16, rac-2-(5-Cyclohex-1-enyl-3-oxo-1,3-dihydro-isobenzofuran-1-yl)-N-[2-(7-fluoro-2-oxo-2H-quinolin-1-yl)-ethyl]-acetamide] |
| 0.5 (≈ 1.15 µM) | ≤ 0.016 | 0.063 (≈ 0.145 µM) | 0.5 (≈ 1.15 µM) | ≤ 0.016 | CC(C)=Cc1ccc2c(c1)C(=O)OC2CC(=O)NCCn1c(=O)ccc2ccc(F)cc21 (racemic) [Example 17, rac-N-[2-(7-Fluoro-2-oxo-2H-quinolin-1-yl)-ethyl]-2-[5-(2-methyl-propenyl)-3-oxo-1,3-dihydro-isobenzofuran-1-yl]-acetamide] |
| 4 (≈ 8.96 µM) | 1 (≈ 2.24 µM) | 0.5 (≈ 1.12 µM) | > 8 | 0.25 (≈ 0.56 µM) | O=C(Cn1c(=O)ccc2ccc(F)cc21)NCCC1OC(=O)c2cc(C3=CCCC3)ccc21 (racemic) [Example 23, rac-N-[2-(5-Cyclopent-1-enyl-3-oxo-1,3-dihydro-isobenzofuran-1-yl)-ethyl]-2-(7-fluoro-2-oxo-2H-quinolin-1-yl)-acetamide] |
| 2 (≈ 4.06 µM) | 0.5 (≈ 1.02 µM) | 0.5 (≈ 1.02 µM) | 0.5 (≈ 1.02 µM) | 0.125 (≈ 0.254 µM) | O=C(Cn1c(=O)ccc2ccc(F)cc21)NCCC1OC(=O)c2cc(-c3cc(F)cc(F)c3)ccc21 (racemic) [Example 24, rac-N-{2-[5-(3,5-Difluoro-phenyl)-3-oxo-1,3-dihydro-isobenzofuran-1-yl]-ethyl}-2-(7-fluoro-2-oxo-2H-quinolin-1-yl)-acetamide] |
